Measurements reported in ChEMBL document CHEMBL5725202, “Substituted bicyclic compounds” (2016).

Biological target: Sphingosine 1-phosphate receptor 1 (Homo sapiens, UniProt P21453)
Test: Binding Assay: Membranes were prepared from CHO cells expressing human S1P1. Cells pellets (1x10^9 cells/pellet) were suspended in buffer containing 20 mM HEPES (4-(2-hydroxyethyl)-1-piperazineethanesulfonic acid), pH 7.5, 50 mM NaCl, 2 mM EDTA (Ethylenediaminetetraacetic acid) and Protease Inhibitor cocktail (Roche), and disrupted on ice using the Polytron homogenizer. The homogenate was centrifuged at 20,000 rpm (48,000 g) and the supernatant was discarded. The membrane pellets were resuspended in buffer containing 50 mM HEPES, pH 7.5, 100 mM NaCl, 1 mM MgCl2, 2 mM EDTA and stored in aliquots at -80° C. after protein concentration determination.Membranes (2 ug/well) and 0.03 nM final concentration of 33P-S1P ligand (1 mCi/ml, Perkin elmer or American Radiolabeled Chemicals) diluted in assay buffer (50 mM HEPES, pH7.4, 5 mM MgCl2, 1 mM CaCl2, 0.5% fatty acid free BSA (bovine serum albumin), 1 mM NaF) were added to the compound plates (384 Falcon v-bottom plate (0.5 ul/well in a 11 point, 3-fold dilution). Binding was performed for 45 minutes at room temperature, terminated by collecting the membranes onto 384-well Millipore FB filter plates, and radioactivity was measured by TOPCOUNT. The competition data of the test compounds over a range of concentrations was plotted as percentage inhibition of radioligand specific binding.

Sphingosine 1-phosphate receptor 1, sequence (P21453 whole entry): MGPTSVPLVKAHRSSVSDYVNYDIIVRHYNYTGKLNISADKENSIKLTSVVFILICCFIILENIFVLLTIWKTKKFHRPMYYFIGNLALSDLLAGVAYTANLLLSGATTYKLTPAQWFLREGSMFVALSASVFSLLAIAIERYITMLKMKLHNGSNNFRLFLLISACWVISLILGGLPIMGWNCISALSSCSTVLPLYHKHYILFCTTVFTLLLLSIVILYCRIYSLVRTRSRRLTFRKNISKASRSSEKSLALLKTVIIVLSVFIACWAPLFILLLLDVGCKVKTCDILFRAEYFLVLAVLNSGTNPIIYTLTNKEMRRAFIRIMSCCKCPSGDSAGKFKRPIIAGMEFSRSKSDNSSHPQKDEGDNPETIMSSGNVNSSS

CCCCCC[C@H]1Cc2ccc([C@@H]3CC[C@](N)(COP(=O)(O)O)C3)cc2CO1
IC50: < 10 nM
